In PubChem BioAssay AID2060901 (Molecular Pharmacology Branch, DTP, NCI, 2025):
Each block holds one molecule with its values, some of them ahead of it.

Tested on: 422866-222-R5-J1-PDC complex spheroids viability
Test: Anticancer human tumor 422866-222-R5-J1-PDC patient-derived pancreatic adenocarcinoma cell line growth inhibition [RAS]
Details: for IC50: curve of first compound; for viability, T/C: stronger effect = lower value
Method in brief: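 Multi-cell-type spheroids: tumor cells plus HUVEC endothelial cells and mesenchymal stem cells. RAS-pathway inhibitors were combined with targeted agents, each dosed in half-log steps down from clinical Cmax, or from 10 microM when Cmax was unknown.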

[1] = second compound 0.000949 µM, first compound 0.0316 µM
[2] = second compound 0.000949 µM, first compound 0.1 µM
[3] = second compound 0.000949 µM, first compound 0.316 µM
[4] = second compound 0.000949 µM, first compound 1 µM
[5] = second compound 0.000949 µM, first compound 3.16 µM
[6] = second compound 0.000949 µM, first compound 10 µM
[7] = second compound 0.003 µM, first compound 0.0316 µM
[8] = second compound 0.003 µM, first compound 0.1 µM
[9] = second compound 0.003 µM, first compound 0.316 µM
[10] = second compound 0.003 µM, first compound 1 µM
[11] = second compound 0.003 µM, first compound 3.16 µM
[12] = second compound 0.003 µM, first compound 10 µM
[13] = second compound 0.00949 µM, first compound 0.0316 µM
[14] = second compound 0.00949 µM, first compound 0.1 µM
[15] = second compound 0.00949 µM, first compound 0.316 µM
[16] = second compound 0.00949 µM, first compound 1 µM
[17] = second compound 0.00949 µM, first compound 3.16 µM
[18] = second compound 0.00949 µM, first compound 10 µM
[19] = second compound 0.03 µM, first compound 0.0316 µM
[20] = second compound 0.03 µM, first compound 0.1 µM
[21] = second compound 0.03 µM, first compound 0.316 µM
[22] = second compound 0.03 µM, first compound 1 µM
[23] = second compound 0.03 µM, first compound 3.16 µM
[24] = second compound 0.03 µM, first compound 10 µM
[25] = second compound 0.0949 µM, first compound 0.0316 µM
[26] = second compound 0.0949 µM, first compound 0.1 µM
[27] = second compound 0.0949 µM, first compound 0.316 µM
[28] = second compound 0.0949 µM, first compound 1 µM
[29] = second compound 0.0949 µM, first compound 3.16 µM
[30] = second compound 0.0949 µM, first compound 10 µM
[31] = second compound 0.3 µM, first compound 0.0316 µM
[32] = second compound 0.3 µM, first compound 0.1 µM
[33] = second compound 0.3 µM, first compound 0.316 µM
[34] = second compound 0.3 µM, first compound 1 µM
[35] = second compound 0.3 µM, first compound 3.16 µM
[36] = second compound 0.3 µM, first compound 10 µM
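Note: spheroids exposed to compounds for 7 days.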
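Throughout, for viability, T/C: 100% = DMSO vehicle control viability.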

IC50 (second compound 0.000949 µM): < 31.6 nM
IC50 (second compound 0.003 µM): < 31.6 nM
IC50 (second compound 0.00949 µM): < 31.6 nM
IC50 (second compound 0.03 µM): < 31.6 nM
IC50 (second compound 0.0949 µM): < 31.6 nM
IC50 (second compound 0.3 µM): < 31.6 nM
Structure (SMILES): CC(Nc1ccc2c(c1)OCCn1cc(N3C(=O)OCC3C(F)F)nc1-2)C(N)=O (stereo not drawn) + CCn1c(-c2cc(N3CCN(C)CC3)cnc2C(C)OC)c2c3cc(ccc31)-c1csc(n1)CC(NC(=O)C1CC1C)C(=O)N1CCCC(N1)C(=O)OCC(C)(C)C2
viability, T/C [1]: 24.6%
viability, T/C [2]: 19%
viability, T/C [3]: 13%
viability, T/C [4]: 11.9%
viability, T/C [5]: 9.45%
viability, T/C [6]: 10.7%
viability, T/C [7]: 16.9%
viability, T/C [8]: 14.2%
viability, T/C [9]: 9.14%
viability, T/C [10]: 8.16%
viability, T/C [11]: 6.87%
viability, T/C [12]: 5.82%
viability, T/C [13]: 16.1%
viability, T/C [14]: 12.1%
viability, T/C [15]: 9.35%
viability, T/C [16]: 6.74%
viability, T/C [17]: 5.6%
viability, T/C [18]: 4.57%
viability, T/C [19]: 13.4%
viability, T/C [20]: 11.8%
viability, T/C [21]: 9.06%
viability, T/C [22]: 6.27%
viability, T/C [23]: 5.7%
viability, T/C [24]: 4.35%
viability, T/C [25]: 15.5%
viability, T/C [26]: 12.1%
viability, T/C [27]: 8.62%
viability, T/C [28]: 6.05%
viability, T/C [29]: 5.83%
viability, T/C [30]: 4.73%
viability, T/C [31]: 13.9%
viability, T/C [32]: 11.8%
viability, T/C [33]: 10.2%
viability, T/C [34]: 6.6%
viability, T/C [35]: 5.26%
viability, T/C [36]: 4.96%

IC50 (second compound 0.000949 µM): < 31.6 nM
IC50 (second compound 0.003 µM): < 31.6 nM
IC50 (second compound 0.00949 µM): < 31.6 nM
IC50 (second compound 0.03 µM): < 31.6 nM
IC50 (second compound 0.0949 µM): < 31.6 nM
IC50 (second compound 0.3 µM): < 31.6 nM
Structure (SMILES): C[C@@H](NC(=O)c1ncnc(N)c1Cl)c1ncc(C(=O)Nc2cc(C(F)(F)F)c(Cl)cn2)s1 + CCn1c(-c2cccnc2C(C)OC)c2c3cc(ccc31)N1CCOC(CC(NC(=O)C(C(C)C)N(C)C(=O)C3(F)CCN(C(=O)C#CC(C)(C)N(C)C)CC3)C(=O)N3CCCC(N3)C(=O)OCC(C)(C)C2)C1
viability, T/C [1]: 32%
viability, T/C [2]: 30.9%
viability, T/C [3]: 30.3%
viability, T/C [4]: 32.5%
viability, T/C [5]: 29%
viability, T/C [6]: 37%
viability, T/C [7]: 25.3%
viability, T/C [8]: 24%
viability, T/C [9]: 28.5%
viability, T/C [10]: 25.6%
viability, T/C [11]: 25.5%
viability, T/C [12]: 26.3%
viability, T/C [13]: 26.9%
viability, T/C [14]: 23.2%
viability, T/C [15]: 23.7%
viability, T/C [16]: 22.2%
viability, T/C [17]: 24.6%
viability, T/C [18]: 23.6%
viability, T/C [19]: 24.7%
viability, T/C [20]: 19.7%
viability, T/C [21]: 22.7%
viability, T/C [22]: 21.7%
viability, T/C [23]: 25.2%
viability, T/C [24]: 21%
viability, T/C [25]: 17.8%
viability, T/C [26]: 18.4%
viability, T/C [27]: 21.8%
viability, T/C [28]: 20.2%
viability, T/C [29]: 20.7%
viability, T/C [30]: 21.7%
viability, T/C [31]: 18%
viability, T/C [32]: 17.8%
viability, T/C [33]: 21.5%
viability, T/C [34]: 20%
viability, T/C [35]: 21.7%
viability, T/C [36]: 26.1%

IC50 (second compound 0.000949 µM): < 31.6 nM
IC50 (second compound 0.003 µM): < 31.6 nM
IC50 (second compound 0.00949 µM): < 31.6 nM
IC50 (second compound 0.03 µM): < 31.6 nM
IC50 (second compound 0.0949 µM): < 31.6 nM
IC50 (second compound 0.3 µM): < 31.6 nM
Structure (SMILES): CC(=O)OC12COC1CC(O)C1(C)C(=O)C(O)C3=C(C)C(OC(=O)C(O)C(NC(=O)OC(C)(C)C)c4ccccc4)CC(O)(C(OC(=O)c4ccccc4)C21)C3(C)C (stereo not drawn) + CCn1c(-c2cccnc2C(C)OC)c2c3cc(ccc31)N1CCOC(CC(NC(=O)C(C(C)C)N(C)C(=O)C3(F)CCN(C(=O)C#CC(C)(C)N(C)C)CC3)C(=O)N3CCCC(N3)C(=O)OCC(C)(C)C2)C1
viability, T/C [1]: 23.9%
viability, T/C [2]: 23.8%
viability, T/C [3]: 25.8%
viability, T/C [4]: 27.3%
viability, T/C [5]: 26.3%
viability, T/C [6]: 25.9%
viability, T/C [7]: 19.9%
viability, T/C [8]: 19.6%
viability, T/C [9]: 19%
viability, T/C [10]: 21.1%
viability, T/C [11]: 19.8%
viability, T/C [12]: 21.1%
viability, T/C [13]: 19.9%
viability, T/C [14]: 19%
viability, T/C [15]: 20.1%
viability, T/C [16]: 21.5%
viability, T/C [17]: 22.5%
viability, T/C [18]: 19.6%
viability, T/C [19]: 15.4%
viability, T/C [20]: 19.2%
viability, T/C [21]: 21.6%
viability, T/C [22]: 19%
viability, T/C [23]: 21.3%
viability, T/C [24]: 23.9%
viability, T/C [25]: 14.5%
viability, T/C [26]: 16.5%
viability, T/C [27]: 15.3%
viability, T/C [28]: 16.4%
viability, T/C [29]: 21.6%
viability, T/C [30]: 20.9%
viability, T/C [31]: 16.2%
viability, T/C [32]: 17.9%
viability, T/C [33]: 17.6%
viability, T/C [34]: 16.8%
viability, T/C [35]: 18.4%
viability, T/C [36]: 19.9%

IC50 (second compound 0.0316 µM): 7570 nM
IC50 (second compound 0.1 µM): 8440 nM
IC50 (second compound 0.316 µM): > 10000 nM
IC50 (second compound 1 µM): < 31.6 nM
IC50 (second compound 3.16 µM): < 31.6 nM
IC50 (second compound 10 µM): < 31.6 nM
Structure (SMILES): CC1(O)CCCC1n1c(=O)c(C(F)F)cc2cnc(NC3CCN(S(C)(=O)=O)CC3)nc21 (stereo not drawn) + C#Cc1c(F)ccc2cc(O)cc(-c3ncc4c(N5CC6CCC(C5)N6)nc(OCC56CCCN5CC(F)C6)nc4c3F)c12
viability, T/C (second compound 0.0316 µM, first compound 0.0316 µM): 73.3%
viability, T/C (second compound 0.0316 µM, first compound 0.1 µM): 79.7%
viability, T/C (second compound 0.0316 µM, first compound 0.316 µM): 87.4%
viability, T/C (second compound 0.0316 µM, first compound 1 µM): 75.5%
viability, T/C (second compound 0.0316 µM, first compound 3.16 µM): 69.4%
viability, T/C (second compound 0.0316 µM, first compound 10 µM): 43.5%
viability, T/C (second compound 0.1 µM, first compound 0.0316 µM): 85%
viability, T/C (second compound 0.1 µM, first compound 0.1 µM): 69.9%
viability, T/C (second compound 0.1 µM, first compound 0.316 µM): 72.5%
viability, T/C (second compound 0.1 µM, first compound 1 µM): 78.8%
viability, T/C (second compound 0.1 µM, first compound 3.16 µM): 73%
viability, T/C (second compound 0.1 µM, first compound 10 µM): 46%
viability, T/C (second compound 0.316 µM, first compound 0.0316 µM): 67.3%
viability, T/C (second compound 0.316 µM, first compound 0.1 µM): 67.5%
viability, T/C (second compound 0.316 µM, first compound 0.316 µM): 64.5%
viability, T/C (second compound 0.316 µM, first compound 1 µM): 62.5%
viability, T/C (second compound 0.316 µM, first compound 3.16 µM): 72.6%
viability, T/C (second compound 0.316 µM, first compound 10 µM): 41.6%
viability, T/C (second compound 1 µM, first compound 0.0316 µM): 55.4%
viability, T/C (second compound 1 µM, first compound 0.1 µM): 43.7%
viability, T/C (second compound 1 µM, first compound 0.316 µM): 42.2%
viability, T/C (second compound 1 µM, first compound 1 µM): 60.8%
viability, T/C (second compound 1 µM, first compound 3.16 µM): 70.4%
viability, T/C (second compound 1 µM, first compound 10 µM): 43.3%
viability, T/C (second compound 3.16 µM, first compound 0.0316 µM): 29.6%
viability, T/C (second compound 3.16 µM, first compound 0.1 µM): 27.6%
viability, T/C (second compound 3.16 µM, first compound 0.316 µM): 31.6%
viability, T/C (second compound 3.16 µM, first compound 1 µM): 31.9%
viability, T/C (second compound 3.16 µM, first compound 3.16 µM): 42.2%
viability, T/C (second compound 3.16 µM, first compound 10 µM): 32.3%
viability, T/C (second compound 10 µM, first compound 0.0316 µM): 21%
viability, T/C (second compound 10 µM, first compound 0.1 µM): 21.5%
viability, T/C (second compound 10 µM, first compound 0.316 µM): 25%
viability, T/C (second compound 10 µM, first compound 1 µM): 29.3%
viability, T/C (second compound 10 µM, first compound 3.16 µM): 42.1%
viability, T/C (second compound 10 µM, first compound 10 µM): 36.5%
